The molecules below were run on HCV replicon cells (assay: Cell-based HCV replicon assay (replicon RNA level by real time PCR, Taqman)). Conditions: Hepatitis C virus, 72 h, HCV replicon cells, harvested day 3, replicon RNA by real time PCR; given as number; read-out: EC90 (μM) range.
Summary of the method: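 Readout: ΔCT between NS5B replicon RNA and GAPDH by real-time RT-PCR in lysates harvested on day 3, fitted sigmoidally; EC50 at ΔCT=1, EC90 at ΔCT=3.2. Compounds tested at ten 2-fold dilutions from 25 μM to 1 μM start, 10% FBS, 0.5% DMSO.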

Structure (SMILES)	EC90 [µM]
CCOc1cc2cc(-c3c(C)nc(NC(C)C)nc3N[C@@H]3C[C@H](CO)[C@@H](O)[C@H]3O)oc2c(C)n1 [Example 32]	0.95
CNC(=O)OC[C@H]1C[C@@H](Nc2nc(NCC(F)(F)F)nc(C)c2-c2nc3ccccc3s2)[C@H](O)[C@@H]1O [Example 66]	0.85
CCC(CC)Oc1cc2cc(-c3c(C)nc(NCCOC)nc3N[C@@H]3C[C@H](CO)[C@@H](O)[C@H]3O)oc2c(C)n1 [Example 48]	> 25
CCOc1cc2cc(-c3c(C)nc(NCc4nccs4)nc3N[C@@H]3C[C@H](CO)[C@@H](O)[C@H]3O)oc2c(C)n1 [Example 24]	0.02

Same assay, conditions: Hepatitis C virus, 72 h, HCV replicon cells, harvested day 3, replicon RNA by real time PCR; reported as range class; read-out: EC90 (μM) range

Structure (SMILES)	EC90 [µM]
Nc1nc(N[C@@H]2C[C@H](CO)[C@@H](O)[C@H]2O)c(-c2ncco2)c(-c2ncco2)n1 [Example 107]	> 5
N#Cc1ccc2oc(-c3c(Cl)nc(N)nc3N[C@@H]3C[C@H](CO)[C@@H](O)[C@H]3O)cc2c1 [Example 171]	> 5
CCCOc1ccc2nc(-c3c(Cl)nc(N)nc3N[C@@H]3C[C@H](CO)[C@@H](O)[C@H]3O)sc2c1 [Example 197]	< 0.5
Nc1nc(Cl)c(-c2cncs2)c(N[C@@H]2C[C@H](CO)[C@@H](O)[C@H]2O)n1 [Example 163]	> 5
Nc1nc(Cl)c(-c2cccc(N3CCOCC3)n2)c(N[C@@H]2C[C@H](CO)[C@@H](O)[C@H]2O)n1 [Example 158]	> 5
COC[C@H]1C[C@@H](Nc2nc(N(C)C)nc(C)c2-c2nc3ccccc3s2)[C@H](O)[C@@H]1O [Example 123]	> 5
CN(C)c1nc(N[C@@H]2C[C@H](CO)[C@@H](O)[C@H]2O)c(-c2nc3ccccc3s2)c(-c2ccccc2)n1 [Example 414]	> 5
CCc1cc2cc(-c3c(Cl)nc(N)nc3N[C@@H]3C[C@H](CO)[C@@H](O)[C@H]3O)oc2c(C)n1 [Example 309]	< 0.5
OC[C@H]1C[C@@H](Nc2nc(NCC(F)F)nc(Cl)c2-c2nc3ccccc3s2)[C@H](O)[C@@H]1O [Example 214]	< 0.5
CCOc1ccc2nc(-c3c(Cl)nc(N)nc3N[C@@H]3C[C@H](CO)[C@@H](O)[C@H]3O)sc2c1 [Example 182]	< 0.5
Nc1nc(Cl)c(-c2nc3ccc(F)cc3s2)c(N[C@@H]2C[C@H](CO)[C@@H](O)[C@H]2O)n1 [Example 110]	0.5 to 5
CNC(=O)c1ccc2oc(-c3c(Cl)nc(N)nc3N[C@@H]3C[C@H](CO)[C@@H](O)[C@H]3O)cc2c1 [Example 172]	> 5
COCc1cc2cc(-c3c(Cl)nc(N)nc3N[C@@H]3C[C@H](CO)[C@@H](O)[C@H]3O)oc2cn1 [Example 310]	< 0.5
Cc1nccc2cc(-c3c(Cl)nc(N)nc3N[C@@H]3C[C@H](CO)[C@@H](O)[C@H]3O)oc12 [Example 305]	< 0.5
CO[C@@H](C)CNc1nc(Cl)c(-c2nc3ccccc3s2)c(N[C@@H]2C[C@H](CO)[C@@H](O)[C@H]2O)n1 [Example 228]	< 0.5

Same assay, conditions: Hepatitis C virus, 72 h, HCV replicon cells, harvested on day 3, replicon RNA by real time PCR; calculated EC90 reported as range class; read-out: EC90 (μM) range

Structure (SMILES)	EC90 [µM]
Cc1nc(NCC2CCCO2)nc(N[C@@H]2C[C@H](CO)[C@@H](O)[C@H]2O)c1-c1nc2ccccc2s1 (some centres unmarked) [Example 325]	< 0.5
C[C@H](Nc1nc(Cl)c(-c2nc3ccccc3s2)c(N[C@@H]2C[C@H](CO)[C@@H](O)[C@H]2O)n1)C(F)(F)F [Example 131]	< 0.5
Cc1ccccc1CNc1nc(C)c(-c2nc3ccccc3s2)c(N[C@@H]2C[C@H](CO)[C@H]3OC(C)(C)O[C@H]32)n1 [Example 487]	> 5
CCCNc1nc(C)c(-c2nc3ccccc3s2)c(N[C@@H]2C[C@H](CO)[C@@H](O)[C@H]2O)n1 [Example 422]	< 0.5
OC[C@H]1C[C@@H](Nc2nc(NCc3cccc(F)c3)nc(Cl)c2-c2nc3ccccc3s2)[C@H](O)[C@@H]1O [Example 234]	< 0.5
CCc1cc2cc(-c3c(C)nc(NCc4ccco4)nc3N[C@@H]3C[C@H](CO)[C@@H](O)[C@H]3O)oc2cn1 [Example 705]	< 0.5
CCCCCNc1nc(C)c(-c2nc3ccccc3s2)c(N[C@@H]2CC[C@H]3OC4(CCCCC4)O[C@@H]23)n1 [Example 332]	> 5
COc1cc(CNc2nc(C)c(-c3nc4ccccc4s3)c(N[C@@H]3C[C@H](CO)[C@H]4OC(C)(C)O[C@H]43)n2)cc(OC)c1 [Example 500]	< 0.5
Cc1nc(NCc2cccc(F)c2)nc(N[C@@H]2C[C@H](CO)[C@@H](O)[C@H]2O)c1-c1nc2ccccc2s1 [Example 244]	< 0.5
CCCCCNc1nc(Cl)c(-c2cc3cc(C)ncc3o2)c(N[C@@H]2C[C@H](CO)[C@@H](O)[C@H]2O)n1 [Example 451]	< 0.5
COCc1cc2cc(-c3c(C)nc(NCc4nccs4)nc3N[C@@H]3C[C@H](CO)[C@@H](O)[C@H]3O)oc2cn1 [Example 340]	< 0.5
Cc1cc2cc(-c3c(Cl)nc(N(C)C)nc3N[C@@H]3C[C@H](CO)[C@@H](O)[C@H]3O)oc2c(C)n1 [Example 420]	> 5
Cc1nc(NCCNC(=O)OCc2ccccc2)nc(N[C@@H]2C[C@H](CO)[C@H]3OC(C)(C)O[C@H]32)c1-c1nc2ccccc2s1 [Example 253]	0.5 to 5
Cc1ccsc1CNc1nc(C)c(-c2nc3ccccc3s2)c(N[C@@H]2C[C@H](CO)[C@@H](O)[C@H]2O)n1 [Example 479]	< 0.5

Same assay, conditions: Hepatitis C virus, 72 h, HCV replicon cells, replicon RNA level by real time PCR (Taqman), day 3; calculated EC90; read-out: EC90 (μM) range

Structure (SMILES)	EC90 [µM]
Cc1nc(NCC(F)(F)F)nc(N[C@@H]2C[C@H](CO)[C@H]3OC(C)(C)O[C@H]32)c1-c1nc2cnccc2o1 [Example 2002]	> 5

Same assay, conditions: Hepatitis C virus, 72 h, HCV replicon cells, replicon RNA level by real time PCR (Taqman), harvested on day 3; calculated EC90 reported as range class; read-out: EC90 (μM) range

Structure (SMILES)	EC90 [µM]
Cc1cc2cc(-c3c(C)nc(NCC(F)(F)F)nc3N[C@@H]3C[C@H](CO)[C@@H](O)[C@H]3O)oc2c(OC(C)C)n1 [Example 1247]	< 0.5
Cc1nc(NCC(C)(C)C)nc(N[C@@H]2C[C@H](CO)[C@@H](O)[C@H]2O)c1-c1nc2c(s1)CCN(C)C2 [Example 1321]	0.5 to 5
Cc1nc(NCC2CC2)nc(N[C@@H]2C[C@H](CO)[C@@H](O)C2)c1-c1nc2ccccc2s1 [Example 1240]	0.5 to 5
Cc1nc(NCC2CC2)nc(N[C@@H]2C[C@H](CO)C[C@H]2O)c1-c1nc2ccccc2s1 [Example 1251]	0.5 to 5
Cc1nc(NCc2cc(Cl)cc(Cl)c2)nc(N[C@@H]2C[C@H](CO)[C@@H](O)[C@H]2O)c1-c1nc2ccccc2s1 [Example 1114]	0.5 to 5
COc1nc(C)cc2cc(-c3c(C)nc(NCC4CC4)nc3N[C@@H]3C[C@H](CO)[C@@H](O)[C@H]3O)oc12 [Example 1239]	0.5 to 5
Cc1nc(NC2CC2)nc(N[C@@H]2C[C@H](CO)[C@@H](O)[C@H]2O)c1-c1nc2cnccc2s1 [Example 534]	< 0.5
CCNc1nc(C)c(-c2nc3ccccc3s2)c(N[C@@H]2CC(C(C)(F)F)[C@@H](O)[C@H]2O)n1 (single isomer, unassigned) [Example 1074]	0.5 to 5
Cc1nc(NCCOC(F)(F)F)nc(N[C@@H]2C[C@H](CO)[C@@H](O)[C@H]2O)c1-c1nc2ccccc2s1 [Example 1066]	< 0.5
CCOCCNc1nc(C)c(-c2nc3cc(OC(F)F)c(OC(F)F)cc3s2)c(N[C@@H]2C[C@H](CO)[C@H]3OC(C)(C)O[C@H]32)n1 [Example 1001]	> 5
Cc1nc(Nc2cc[nH]n2)nc(N[C@@H]2C[C@H](CO)[C@@H](O)[C@H]2O)c1-c1nc2ccccc2s1 [Example 1222]	> 5
CCOCCNc1nc(C)c(-c2nc3ccccc3n2C)c(N[C@@H]2C[C@H](CO)[C@@H](O)[C@H]2O)n1 [Example 531]	> 5
Cc1nc(NCc2cc(Cl)cc(Cl)c2)nc(N[C@@H]2C[C@H](CO)[C@H]3OC(C)(C)O[C@H]32)c1-c1nc2ccccc2s1 [Example 1113]	0.5 to 5

Same assay, conditions: Hepatitis C virus, 72 h, HCV replicon cells, replicon RNA level by real time PCR, harvested day 3; read-out: EC90 (μM) range

Structure (SMILES)	EC90 [µM]
Cc1ccc([C@@H](C)Nc2nc(C)c(-c3nc4ccccc4o3)c(N[C@@H]3C[C@H](CO)[C@@H](O)[C@H]3O)n2)cc1 [Example 1360]	0.5 to 5
CCNC(=O)NC[C@H]1C[C@@H](Nc2nc(NCC(F)(F)F)nc(C)c2-c2nc3ccccc3s2)[C@H](O)[C@@H]1O [Example 1377]	0.5 to 5
Cc1nc(NCC2CC2)nc(N[C@@H]2CC[C@@H](O)[C@@]2(C)O)c1-c1nc2c(C)nccc2s1 [Example 1815]	< 0.5
CC(=O)OC[C@H]1C[C@@H](Nc2nc(N)nc(C)c2-c2nc3ccccc3s2)[C@H](O)[C@@H]1O [Example 1915]	> 5
Cc1nc(N[C@H](C)C(F)(F)F)nc(N[C@@H]2C[C@H](CO)[C@@H](O)[C@H]2O)c1-c1nc2ccccc2s1 [Example 1623]	0.5 to 5
Cc1nc(NCc2c(F)cccc2F)nc(N[C@@H]2C[C@H](CO)[C@@H](O)[C@H]2O)c1-c1nc2cnccc2s1 [Example 1804]	< 0.5
CO[C@@H]1[C@H](O)[C@@H](CO)C[C@H]1Nc1nc(N[C@H](C)c2ccc(C)cc2)nc(C)c1-c1nc2cnccc2s1 [Example 1350]	< 0.5
Cc1nc(NCC(C)(C)C)nc(N[C@@H]2C[C@H](CO)[C@@H](O)[C@H]2O)c1-c1nc2ccccc2o1 [Example 1359]	< 0.5
Cc1nc(NCC(F)(F)F)nc(N[C@@H]2C[C@H](C(C)O)[C@@H](O)[C@H]2O)c1-c1nc2ccccc2s1 (some centres unmarked) [Example 1632]	< 0.5
Cc1nc(NCc2ccc3[nH]cnc3c2)nc(N[C@@H]2C[C@H](CO)[C@@H](O)[C@H]2O)c1-c1nc2ccccc2s1 [Example 1912]	< 0.5
Cc1ccc([C@@H](C)Nc2nc(C)c(-c3nc4cnccc4s3)c(N[C@@H]3C[C@H](CS(C)(=O)=O)[C@@H](O)[C@H]3O)n2)cc1 [Example 1368]	< 0.5
Cc1nc(N[C@H](C)c2ccc(-n3cccn3)cc2)nc(N[C@@H]2C[C@H](CO)[C@@H](O)[C@H]2O)c1-c1nc2c(C)nccc2s1 [Example 1355]	< 0.5

Source: US8697694B2, “Substituted pyridine and pyrimidine derivatives and their use in treating viral infections” (priority 2008, dated 2014)
